Laboratory results from ChEMBL document CHEMBL1201862, “PubChem BioAssay data set” (2004).
Calls of active or inactive are those of the source.

Tests used:
HEK293 [1] = assay: cytotoxicity in HEK293T NF-kB-Luc cells, SAR follow-up, cytotoxicity control for NF-kB activator project, cell-based, resazurin fluorescence (AID 493251); assay type: functional; details: Homo sapiens
Jurkat = assay: SAR Analysis of small molecule inhibitors of T-cell specific antigen receptor-induced NF-kB activation in a Jurkat cell line using a luminescence assay. [Related pubchem assays (depositor defined):AID435003, AID435012, AID465]; assay type: functional, cell-based; details: Homo sapiens
HEK293 [2] = assay: SAR Analysis of small molecule inhibitors of T-cell specific antigen receptor-induced NF-kB activation in a HEK-293T cell line using a luminescence assay. [Related pubchem assays (depositor defined):AID435003, AID435012, AID489026]; assay type: functional, cell-based; details: Homo sapiens
Insulin-degrading enzyme [3] = target: T1, Insulin-degrading enzyme (Homo sapiens, UniProt P14735); assay: activators of recombinant IDE enzyme, dose response, counter-screen for IDE activator project, biochemical, fluorescence polarization (AID 588681)
Insulin-degrading enzyme [4] = target: T1, Insulin-degrading enzyme; assay: activators of endogenous IDE in HEK cells, dose response, cell-based, fluorescence polarization (AID 588439); assay type: functional
HEK293 [5] = assay: HEK cell cytotoxicity by LDH release, dose response, cytotoxicity control for IDE activator project, fluorescence, HEK cells (AID 588440); assay type: functional, cell-based; details: Homo sapiens;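 note: cytotoxicity by LDH release measuring loss of membrane integrity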
HEK293 [6] = assay: optical interference in Abeta FP readout, dose response, artefact control for IDE activator project, biochemical, fluorescence polarization (AID 588442); assay type: functional, cell-based; details: Homo sapiens
[7] = target: T2, Carboxy-terminal domain RNA polymerase II polypeptide A small phosphatase 1 (Homo sapiens, UniProt Q9GZU7); assay: inhibitors of CTDSP1, concentration-response testing, biochemical assay, absorbance-based, actives from ultra-high-throughput screening (AID 540297); assay type: functional
T2 sequence (Q9GZU7 whole entry): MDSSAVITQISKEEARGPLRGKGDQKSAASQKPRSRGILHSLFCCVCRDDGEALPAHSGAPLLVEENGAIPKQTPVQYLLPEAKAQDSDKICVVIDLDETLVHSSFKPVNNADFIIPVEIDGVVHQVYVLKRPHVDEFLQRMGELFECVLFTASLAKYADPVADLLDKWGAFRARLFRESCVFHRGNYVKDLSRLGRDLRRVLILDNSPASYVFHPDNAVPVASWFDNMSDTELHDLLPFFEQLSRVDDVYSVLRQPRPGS

[8] = target: T3, Dual specificity protein phosphatase 3 (Homo sapiens, UniProt P51452); assay: VHR1 phosphatase inhibitors, primary screen, biochemical, absorbance, uHTS (AID 1654)
[9] = target: T3, Dual specificity protein phosphatase 3; assay: VHR1 phosphatase inhibitors, biochemical (AID 1878)
[10] = target: T4, Dual specificity protein phosphatase 6 (Rattus norvegicus, UniProt Q64346); assay: MKP-3 phosphatase inhibitors, primary screen, biochemical, rat enzyme, in vitro (AID 425)
T4 sequence (Q64346 whole entry): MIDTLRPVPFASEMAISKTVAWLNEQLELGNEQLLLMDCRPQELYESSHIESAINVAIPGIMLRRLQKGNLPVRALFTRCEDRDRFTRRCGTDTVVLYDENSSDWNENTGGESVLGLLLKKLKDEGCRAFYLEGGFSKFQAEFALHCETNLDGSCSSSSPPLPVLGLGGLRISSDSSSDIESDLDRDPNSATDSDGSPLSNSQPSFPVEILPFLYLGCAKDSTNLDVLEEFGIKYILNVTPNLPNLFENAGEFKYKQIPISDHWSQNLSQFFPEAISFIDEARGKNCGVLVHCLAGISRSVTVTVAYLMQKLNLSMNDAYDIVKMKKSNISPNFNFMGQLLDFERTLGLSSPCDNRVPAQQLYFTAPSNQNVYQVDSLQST

[11] = target: Beta-adrenergic receptor kinase 1 (Homo sapiens, UniProt P25098); assay: aptamer displacement from bead-bound GRK2 – biochemical, cherry pick 1, bead flow cytometry, dose response (AID 504500)
[12] = target: T5, Short transient receptor potential channel 4 (Mus musculus, UniProt Q9QUQ5); assay: mouse TRPC4 channel activators, dose response, cell-based, HEK293 TRPC4/mu-opioid, Fluo-4 calcium (AID 434937); assay type: functional
T5 sequence (Q9QUQ5 whole entry): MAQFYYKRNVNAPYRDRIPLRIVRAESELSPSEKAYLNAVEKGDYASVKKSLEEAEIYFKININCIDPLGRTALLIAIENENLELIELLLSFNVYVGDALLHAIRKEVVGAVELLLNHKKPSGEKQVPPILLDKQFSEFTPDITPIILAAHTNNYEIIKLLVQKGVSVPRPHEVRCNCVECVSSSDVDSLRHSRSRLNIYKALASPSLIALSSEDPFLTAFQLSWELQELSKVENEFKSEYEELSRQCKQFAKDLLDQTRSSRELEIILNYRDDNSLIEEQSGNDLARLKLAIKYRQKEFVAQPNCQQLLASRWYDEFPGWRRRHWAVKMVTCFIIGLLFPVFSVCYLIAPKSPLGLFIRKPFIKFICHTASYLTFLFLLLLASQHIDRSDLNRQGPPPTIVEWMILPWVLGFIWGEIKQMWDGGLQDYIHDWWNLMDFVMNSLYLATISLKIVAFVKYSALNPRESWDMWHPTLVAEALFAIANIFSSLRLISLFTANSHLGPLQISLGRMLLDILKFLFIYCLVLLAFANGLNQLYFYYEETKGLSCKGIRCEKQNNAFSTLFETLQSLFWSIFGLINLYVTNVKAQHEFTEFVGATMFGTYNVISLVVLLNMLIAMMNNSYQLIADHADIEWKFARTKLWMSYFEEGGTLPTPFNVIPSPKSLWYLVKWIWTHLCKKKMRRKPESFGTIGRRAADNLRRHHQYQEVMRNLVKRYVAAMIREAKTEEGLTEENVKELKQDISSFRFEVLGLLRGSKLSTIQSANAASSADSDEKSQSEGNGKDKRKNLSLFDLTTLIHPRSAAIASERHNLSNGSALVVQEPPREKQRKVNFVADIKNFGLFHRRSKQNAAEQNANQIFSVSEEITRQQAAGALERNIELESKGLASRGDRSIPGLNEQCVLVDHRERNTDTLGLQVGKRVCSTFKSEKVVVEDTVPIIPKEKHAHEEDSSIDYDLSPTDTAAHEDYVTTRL

Cysteine protease ATG4B = Cysteine protease ATG4B (Homo sapiens, UniProt Q9Y4P1); assay type: functional;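 note: Fluorescence-based dose-response confirmation assay measuring inhibition of ATG4B activity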
Phospholipase A2 = Phospholipase A2 (Homo sapiens, UniProt P04054); assay type: functional;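 note: confirmatory dose-response counterscreen on phospholipase A2, testing hits that came from an ultra-high-throughput screen for ATG4B inhibitors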
[13] = target: Multidrug resistance protein CDR1 (Candida albicans, UniProt P43071); assay: CaCDR1 efflux pump inhibitors in yeast, dose response, S. cerevisiae AD1-8u, singleplex, Cherry Pick1 hits (AID 588606); assay type: functional
[14] = target: Multidrug resistance protein CDR2 (Candida albicans (strain SC5314 / ATCC MYA-2876) (Yeast), UniProt P78595); assay: CaCDR2 efflux pump inhibitors in yeast, dose response, S. cerevisiae AD1-8u, singleplex, Cherry Pick1 hits (AID 588604); assay type: functional
[15] = target: Dual specificity tyrosine-phosphorylation-regulated kinase 1A (Rattus norvegicus, UniProt Q63470); assay type: biochemical, Homo sapiens
[16] = target: T6, Small ubiquitin-related modifier 1 (Homo sapiens, UniProt P63165); assay: inhibitors of SUMO1 peptide binding, dose response, biochemical, fluorescence polarization, uHTS hits (AID 624382); assay type: functional; details: read-out: IC50_Mean
[17] = target: T6, Small ubiquitin-related modifier 1; assay: inhibitors of SUMO1 partner interactions, dose response, biochemical, FRET (AID 624383); assay type: functional; details: read-out: IC50_Mean
[18] = target: T7, Rac GTPase-activating protein 1 (Homo sapiens, UniProt Q9H0H5); assay: MgcRacGAP GTPase-activating activity inhibitors, confirmation, biochemical, ADP Hunter fluorescence, primary and confirmatory (AID 624330); assay type: functional
T7 sequence (Q9H0H5 whole entry): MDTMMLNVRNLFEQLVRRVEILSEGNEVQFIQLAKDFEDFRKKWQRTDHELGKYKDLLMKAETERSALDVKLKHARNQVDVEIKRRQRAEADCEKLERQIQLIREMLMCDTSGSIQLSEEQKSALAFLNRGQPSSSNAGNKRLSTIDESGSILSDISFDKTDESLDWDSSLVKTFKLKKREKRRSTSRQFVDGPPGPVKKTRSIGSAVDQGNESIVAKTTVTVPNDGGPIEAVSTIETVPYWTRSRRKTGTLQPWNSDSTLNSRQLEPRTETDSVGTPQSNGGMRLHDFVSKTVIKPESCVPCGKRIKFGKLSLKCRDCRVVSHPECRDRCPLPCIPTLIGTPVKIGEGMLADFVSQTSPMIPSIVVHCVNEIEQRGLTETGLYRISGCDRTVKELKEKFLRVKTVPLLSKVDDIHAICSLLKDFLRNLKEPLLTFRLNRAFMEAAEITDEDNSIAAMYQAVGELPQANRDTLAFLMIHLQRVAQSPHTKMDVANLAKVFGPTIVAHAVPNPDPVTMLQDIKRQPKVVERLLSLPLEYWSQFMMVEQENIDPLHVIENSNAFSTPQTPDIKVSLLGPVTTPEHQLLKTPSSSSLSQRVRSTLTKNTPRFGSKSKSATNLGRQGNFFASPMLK

Phospholipase D1 = Phospholipase D1 (Homo sapiens, UniProt Q13393); assay: PLD1 inhibitor potency in cells, dose response (AID 602151); assay type: functional;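 note: cellular PLD1 assay in Calu-1 cells stimulated with PMA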
Phospholipase D2 = Phospholipase D2 (Homo sapiens, UniProt O14939); assay: PLD2 inhibitor potency in cells, dose response (AID 602147); assay type: functional;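 note: cellular assay in HEK293 cells overexpressing GFP-tagged PLD2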
[19] = KCNQ1 channel current modulation by KCNQ2 openers, dose response, selectivity assay for KCNQ2 activator project, automated patch clamp, KCNQ1-CHO cells (AID 493044); assay type: functional, cell-based
[20] = KCNQ1/KCNE1 channel current potentiation, dose response, selectivity assay for KCNQ2 activator project, automated patch clamp, CHO cells (AID 493042); assay type: functional
[21] = target: Potassium voltage-gated channel subfamily KQT member 2 (Rattus norvegicus, UniProt O88943); assay: Mode of action assay-Dose response assay for compounds that activate KCNQ2 potassium channels on automated patch clamp. [Related pubchem assays (depositor defined):AID2239, AID2258, AID2287, AID493113]; assay type: functional
[22] = target: T8, Potassium voltage-gated channel subfamily KQT member 4 (Homo sapiens, UniProt P56696); assay: human KCNQ4 channel current potentiation, dose response, selectivity assay for KCNQ2 activator project, automated patch clamp, CHO cells (AID 493043); assay type: functional, cell-based
[23] = target: Potassium voltage-gated channel subfamily KQT member 2/member 3 (Rattus norvegicus, UniProt O88943+O88944); assay: Mode of action assay-Dose response assay for KCNQ2 activators in the KCNQ2/KCNQ3 co-expressing cells on automated patch clamp. [Related pubchem assays (depositor defined):AID2239, AID2258, AID2287]; assay type: functional
[24] = target: T8, Potassium voltage-gated channel subfamily KQT member 4; assay: KCNQ4 channel modulation, potentiation or inhibition, dose response, selectivity assay for KCNQ2 activator project, thallium flux, KCNQ4-expressing cells (AID 504416); assay type: functional, cell-based
[25] = target: T9, Platelet-activating factor acetylhydrolase 2, cytoplasmic (Mus musculus, UniProt Q8VDG7); assay: Late stage assay provider results from the probe development effort to identify inhibitors of PAFAH2: fluorescence-based cell-based gel-based Activity-Based Protein Profiling (ABPP) IC50. [Related pubchem assays (depositor defined):AID492956, AID492969, AID493030]; assay type: functional
[26] = target: T9, Platelet-activating factor acetylhydrolase 2, cytoplasmic; assay: Late stage assay provider results from the probe development effort to identify inhibitors of PAFAH2: Fluorescence-based biochemical gel-based Activity-Based Protein Profiling (ABPP) IC50. [Related pubchem assays (depositor defined):AID492956, AID492969, AID493030]

T9 sequence (Q8VDG7 whole entry): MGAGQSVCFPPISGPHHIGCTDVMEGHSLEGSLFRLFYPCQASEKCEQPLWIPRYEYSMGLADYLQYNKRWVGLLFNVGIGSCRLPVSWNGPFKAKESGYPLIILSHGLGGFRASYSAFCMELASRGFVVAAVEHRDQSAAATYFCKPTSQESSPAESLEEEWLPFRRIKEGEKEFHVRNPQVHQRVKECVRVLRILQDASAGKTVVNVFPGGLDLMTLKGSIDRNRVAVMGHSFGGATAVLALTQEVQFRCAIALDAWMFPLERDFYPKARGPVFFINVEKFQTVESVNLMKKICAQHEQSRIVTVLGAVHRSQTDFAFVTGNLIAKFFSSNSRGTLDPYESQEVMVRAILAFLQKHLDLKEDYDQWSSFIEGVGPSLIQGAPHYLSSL
T8 sequence (P56696 whole entry): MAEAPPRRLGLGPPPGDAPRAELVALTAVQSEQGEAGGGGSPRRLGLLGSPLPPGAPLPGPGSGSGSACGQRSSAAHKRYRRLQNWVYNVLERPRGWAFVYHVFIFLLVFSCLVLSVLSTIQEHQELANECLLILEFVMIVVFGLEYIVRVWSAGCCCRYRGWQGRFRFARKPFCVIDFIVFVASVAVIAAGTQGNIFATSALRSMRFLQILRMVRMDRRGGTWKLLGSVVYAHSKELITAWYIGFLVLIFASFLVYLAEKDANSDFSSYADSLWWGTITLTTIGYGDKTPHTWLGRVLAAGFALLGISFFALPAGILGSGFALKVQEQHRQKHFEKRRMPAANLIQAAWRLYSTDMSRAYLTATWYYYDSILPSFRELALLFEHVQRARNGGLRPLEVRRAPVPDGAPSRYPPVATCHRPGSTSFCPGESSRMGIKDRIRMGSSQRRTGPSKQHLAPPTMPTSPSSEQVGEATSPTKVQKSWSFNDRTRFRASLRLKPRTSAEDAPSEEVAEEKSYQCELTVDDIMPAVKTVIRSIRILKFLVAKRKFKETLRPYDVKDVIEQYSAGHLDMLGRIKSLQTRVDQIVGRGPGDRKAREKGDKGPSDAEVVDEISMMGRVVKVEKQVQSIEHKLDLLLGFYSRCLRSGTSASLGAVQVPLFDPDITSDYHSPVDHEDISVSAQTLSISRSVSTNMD
T6 sequence (P63165 whole entry): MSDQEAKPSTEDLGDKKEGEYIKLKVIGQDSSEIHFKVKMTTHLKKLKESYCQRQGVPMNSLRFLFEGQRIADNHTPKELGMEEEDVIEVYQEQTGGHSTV
T1 sequence (P14735 whole entry): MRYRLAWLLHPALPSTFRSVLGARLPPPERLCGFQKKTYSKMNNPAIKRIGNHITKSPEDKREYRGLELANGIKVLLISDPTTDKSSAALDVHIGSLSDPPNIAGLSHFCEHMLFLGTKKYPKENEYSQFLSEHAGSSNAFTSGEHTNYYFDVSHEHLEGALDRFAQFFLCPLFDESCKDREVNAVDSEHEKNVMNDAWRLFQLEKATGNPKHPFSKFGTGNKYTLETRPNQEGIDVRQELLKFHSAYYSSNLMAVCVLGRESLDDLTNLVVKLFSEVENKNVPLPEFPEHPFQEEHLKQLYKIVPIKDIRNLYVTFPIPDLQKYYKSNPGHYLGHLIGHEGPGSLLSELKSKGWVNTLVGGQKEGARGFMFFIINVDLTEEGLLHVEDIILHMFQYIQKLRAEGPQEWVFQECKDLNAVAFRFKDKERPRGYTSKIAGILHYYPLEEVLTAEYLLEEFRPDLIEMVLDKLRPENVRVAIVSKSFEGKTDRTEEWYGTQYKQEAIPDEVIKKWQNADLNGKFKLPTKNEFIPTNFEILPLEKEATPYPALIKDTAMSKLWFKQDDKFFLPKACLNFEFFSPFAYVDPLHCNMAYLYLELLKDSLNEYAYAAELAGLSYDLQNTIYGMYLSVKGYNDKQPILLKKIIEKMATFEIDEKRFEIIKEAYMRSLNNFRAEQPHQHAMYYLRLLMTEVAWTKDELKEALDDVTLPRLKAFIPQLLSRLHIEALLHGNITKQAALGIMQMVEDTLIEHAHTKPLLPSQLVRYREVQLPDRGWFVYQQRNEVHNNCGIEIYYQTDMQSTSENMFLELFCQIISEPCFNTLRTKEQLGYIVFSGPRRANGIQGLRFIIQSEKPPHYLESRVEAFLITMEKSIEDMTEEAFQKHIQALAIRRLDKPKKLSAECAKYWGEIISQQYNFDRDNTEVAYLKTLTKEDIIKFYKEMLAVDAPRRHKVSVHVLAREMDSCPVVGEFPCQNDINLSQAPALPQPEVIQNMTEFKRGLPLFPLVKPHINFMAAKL
T3 sequence (P51452 whole entry): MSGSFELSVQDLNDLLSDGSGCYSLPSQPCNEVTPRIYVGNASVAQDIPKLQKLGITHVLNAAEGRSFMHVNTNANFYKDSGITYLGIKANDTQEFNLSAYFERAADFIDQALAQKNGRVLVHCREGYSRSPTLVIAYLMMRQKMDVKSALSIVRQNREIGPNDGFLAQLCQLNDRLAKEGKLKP
Multidrug resistance protein CDR1, sequence (P43071 whole entry, looked up): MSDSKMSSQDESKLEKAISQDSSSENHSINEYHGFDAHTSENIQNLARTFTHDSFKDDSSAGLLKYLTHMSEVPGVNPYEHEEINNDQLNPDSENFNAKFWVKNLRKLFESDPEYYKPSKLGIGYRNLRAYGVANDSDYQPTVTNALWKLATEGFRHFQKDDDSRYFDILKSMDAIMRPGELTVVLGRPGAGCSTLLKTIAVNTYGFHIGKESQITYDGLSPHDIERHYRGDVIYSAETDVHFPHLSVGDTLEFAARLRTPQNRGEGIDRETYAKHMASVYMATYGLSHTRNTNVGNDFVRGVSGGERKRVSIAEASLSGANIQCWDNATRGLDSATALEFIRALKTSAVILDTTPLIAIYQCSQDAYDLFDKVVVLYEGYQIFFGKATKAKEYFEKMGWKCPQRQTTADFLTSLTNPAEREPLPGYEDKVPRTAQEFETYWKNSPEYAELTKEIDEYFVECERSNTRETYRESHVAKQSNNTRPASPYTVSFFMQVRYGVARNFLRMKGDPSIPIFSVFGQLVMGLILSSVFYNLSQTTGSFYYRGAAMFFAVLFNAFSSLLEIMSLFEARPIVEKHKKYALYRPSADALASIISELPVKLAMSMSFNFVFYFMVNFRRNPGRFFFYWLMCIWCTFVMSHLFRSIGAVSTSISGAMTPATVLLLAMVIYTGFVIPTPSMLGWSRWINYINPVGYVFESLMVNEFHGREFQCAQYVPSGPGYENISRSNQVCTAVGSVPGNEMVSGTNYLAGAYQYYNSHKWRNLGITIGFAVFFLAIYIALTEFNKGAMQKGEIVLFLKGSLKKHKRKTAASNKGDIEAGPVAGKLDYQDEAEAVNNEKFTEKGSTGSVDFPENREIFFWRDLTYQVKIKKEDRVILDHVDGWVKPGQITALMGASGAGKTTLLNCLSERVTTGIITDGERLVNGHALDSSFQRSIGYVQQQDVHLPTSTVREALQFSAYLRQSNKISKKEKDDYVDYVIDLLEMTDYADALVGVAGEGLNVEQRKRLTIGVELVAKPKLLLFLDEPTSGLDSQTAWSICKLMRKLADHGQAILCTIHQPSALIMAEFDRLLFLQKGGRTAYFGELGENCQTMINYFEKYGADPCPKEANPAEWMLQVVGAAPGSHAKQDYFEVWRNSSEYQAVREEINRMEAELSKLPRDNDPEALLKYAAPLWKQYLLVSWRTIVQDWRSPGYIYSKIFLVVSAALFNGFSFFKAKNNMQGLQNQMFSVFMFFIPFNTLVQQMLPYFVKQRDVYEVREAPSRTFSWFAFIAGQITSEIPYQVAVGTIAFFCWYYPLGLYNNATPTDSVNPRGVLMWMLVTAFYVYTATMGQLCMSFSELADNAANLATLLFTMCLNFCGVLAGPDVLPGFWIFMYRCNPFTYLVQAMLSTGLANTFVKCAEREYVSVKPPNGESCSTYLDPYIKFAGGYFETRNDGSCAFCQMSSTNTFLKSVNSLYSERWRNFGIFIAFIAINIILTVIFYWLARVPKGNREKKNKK
Phospholipase D2, sequence (O14939 whole entry): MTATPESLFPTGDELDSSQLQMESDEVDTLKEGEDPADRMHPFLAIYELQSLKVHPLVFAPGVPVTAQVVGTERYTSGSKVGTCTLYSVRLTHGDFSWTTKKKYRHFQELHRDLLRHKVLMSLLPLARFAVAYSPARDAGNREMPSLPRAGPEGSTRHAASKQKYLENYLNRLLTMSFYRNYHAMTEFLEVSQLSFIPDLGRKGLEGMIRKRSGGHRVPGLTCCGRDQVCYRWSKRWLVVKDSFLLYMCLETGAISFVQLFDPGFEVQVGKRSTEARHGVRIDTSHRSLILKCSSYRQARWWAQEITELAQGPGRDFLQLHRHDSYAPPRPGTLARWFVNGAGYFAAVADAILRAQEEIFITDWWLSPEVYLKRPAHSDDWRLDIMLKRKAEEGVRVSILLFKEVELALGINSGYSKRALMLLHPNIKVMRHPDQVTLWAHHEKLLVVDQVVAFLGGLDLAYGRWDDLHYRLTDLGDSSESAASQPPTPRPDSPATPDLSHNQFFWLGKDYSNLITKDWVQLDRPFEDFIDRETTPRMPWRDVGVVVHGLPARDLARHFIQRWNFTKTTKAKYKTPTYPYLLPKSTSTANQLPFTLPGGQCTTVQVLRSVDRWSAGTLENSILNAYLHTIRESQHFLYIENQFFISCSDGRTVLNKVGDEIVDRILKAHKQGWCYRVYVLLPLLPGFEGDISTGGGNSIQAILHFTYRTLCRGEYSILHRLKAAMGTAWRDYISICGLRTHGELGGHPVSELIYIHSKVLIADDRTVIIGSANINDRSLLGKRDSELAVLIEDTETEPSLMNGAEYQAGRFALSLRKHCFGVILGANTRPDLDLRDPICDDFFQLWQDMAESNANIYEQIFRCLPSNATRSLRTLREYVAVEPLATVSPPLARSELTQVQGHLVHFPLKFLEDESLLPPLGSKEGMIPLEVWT
Phospholipase A2, sequence (P04054 whole entry): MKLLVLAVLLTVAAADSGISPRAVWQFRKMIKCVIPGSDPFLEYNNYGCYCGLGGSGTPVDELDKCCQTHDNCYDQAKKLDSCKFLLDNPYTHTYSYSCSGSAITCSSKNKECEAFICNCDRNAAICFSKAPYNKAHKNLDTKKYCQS

In the case of `COc1ccc(C(NC(=O)c2ccccc2)c2ccc3cccnc3c2O)cc1` (stereo unspecified), the IC50 (HEK293 [1]) is reported as 6.26 µM (active), the IC50 (Jurkat) is reported as 2.67 µM (active) and the IC50 (HEK293 [2]) is reported as 23.2 µM (inactive).
In the case of `O=C(N/N=C/c1cn(-c2ccccc2)nc1-c1ccc2c(c1)OCCO2)c1ccncc1`, the EC50 (Insulin-degrading enzyme [3]) is reported as > 54.7 µM (inactive), the EC50 (Insulin-degrading enzyme [4]) is reported as > 54.7 µM (inactive) and the IC50 (HEK293 [5]) is reported as 29.2 µM (inactive). The EC50 (HEK293 [6]) was > 54.7 µM (inactive) and the IC50 [7] was 6.51 µM (active).
With `O=C(O)c1ccc(-c2ccc(/C=c3/sc4nc5ccccc5n4c3=O)o2)cc1Cl` the IC50 [8] was 5.86 µM (active), the IC50 [9] was 2.89 µM (active) and the IC50 [10] was 123 µM (not active). The EC50 [11] was 9.71 µM (inactive), the EC50 [12] was 5.96 µM (active) and the IC50 (Cysteine protease ATG4B) was 12.2 µM (active). For the same molecule, the IC50 (Phospholipase A2) was 21.9 µM (inactive), the EC50 [13] was 12.2 µM (active) and the EC50 [14] was 20.3 µM (active). The AC50 [15] was 2 µM (active), the IC50 [16] was > 66.6 µM (inactive) and the IC50 [17] was 11.5 µM (active). The IC50 [18] was 48.4 µM (active).
With `Cc1ccc(C(=O)N[C@@H](C)CN2CCC(n3c(=O)[nH]c4c(F)cccc43)CC2)cc1` the IC50 (Phospholipase D1) was 0.222 µM (active) and the IC50 (Phospholipase D2) was 20 µM (active).
For `Cc1ccc(C)c(NC(=O)C2CC3CCC2C3)c1` (stereo unspecified), the EC50 [19] was 5.03 µM (active), the EC50 [20] was 2.68 µM (active) and the EC50 [21] was 0.402 µM (active). For the same molecule, the EC50 [22] was 1.63 µM (active), the EC50 [23] was 0.396 µM (active) and the EC50 [24] was 2.64 µM (active).
In the case of `O=C(N1CCCC1)n1ncc(-c2ccc(-c3ccccc3)cc2)n1`, the IC50 [25] is reported as 170 µM (active) and the IC50 [26] is reported as 0.003 µM (active).
